Results: ChEMBL document CHEMBL3885861, “Open TG-GATES”

Organism: Rattus norvegicus
Assay: Open TG-GATES - Regimen: Daily Repeat
Format: toxicity, organism-based, Sprague-Dawley
Set-up: regimen Daily Repeat, gender Male, age 6 weeks
Conditions: in vivo, po, 100 mg/kg, route gavage, dose level Low; for APTT / Bas / Eos / Fbg / Hb / Ht / Lym / MCH / MCHC / MCV / Mono / Neu / PT / Plat / RBC / Ret / WBC: tissue Blood; for KIDNEY_L / KIDNEY_R / KIDNEY_TOTAL: tissue Kidney; for LIVER: tissue Liver; for A/G / ALP / ALT / AST / BUN / CRE / Ca / Cl / DBIL / GLC / IP / K / LDH / Na / PL / RALB / TBIL / TC / TG / TP / gamma-GTP: tissue Plasma

**Q.** Which results are given for CC(S)C(=O)NCC(=O)O (configuration not stated) [TIOPRONIN]?
**A.** TERMINAL_BW (72 h, time 3 day): 228.4 g; APTT (72 h, time 3 day): 22 s; Bas (72 h, time 3 day): 0%; Eos (72 h, time 3 day): 1%; Fbg (72 h, time 3 day): 299.8 mg/dL; Hb (72 h, time 3 day): 13 g/dL; Ht (72 h, time 3 day): 39.1%; Lym (72 h, time 3 day): 77.8%; MCH (72 h, time 3 day): 19.9 pg; MCHC (72 h, time 3 day): 33.2%; MCV (72 h, time 3 day): 60.1 fL; Mono (72 h, time 3 day): 2.8%; Neu (72 h, time 3 day): 17.8%; PT (72 h, time 3 day): 15.6 s; Plat (72 h, time 3 day): 120.9 x10_4/uL; RBC (72 h, time 3 day): 652 x10_4/ul; Ret (72 h, time 3 day): 6.7%; WBC (72 h, time 3 day): 105.6 x10_2/uL; KIDNEY_L (72 h, time 3 day): 1 g; KIDNEY_R (72 h, time 3 day): 1 g; KIDNEY_TOTAL (72 h, time 3 day): 2 g; LIVER (72 h, time 3 day): 10.8 g; A/G (72 h, time 3 day): 1.2; ALP (72 h, time 3 day): 1580 IU/L; ALT (72 h, time 3 day): 43.6 IU/L; AST (72 h, time 3 day): 73.6 IU/L; BUN (72 h, time 3 day): 17 mg/dL; CRE (72 h, time 3 day): 0.2 mg/dL; Ca (72 h, time 3 day): 10.6 mg/dL; Cl (72 h, time 3 day): 106.4 meq/L; DBIL (72 h, time 3 day): 0 mg/dL; GLC (72 h, time 3 day): 189.4 mg/dL; IP (72 h, time 3 day): 7.4 mg/dL; K (72 h, time 3 day): 4.4 meq/L; LDH (72 h, time 3 day): 165.2 IU/L; Na (72 h, time 3 day): 140.8 meq/L; PL (72 h, time 3 day): 139.8 mg/dL; RALB (72 h, time 3 day): 3.1 g/dL; TBIL (72 h, time 3 day): 0.008 mg/dL; TC (72 h, time 3 day): 76.6 mg/dL; TG (72 h, time 3 day): 107.2 mg/dL; TP (72 h, time 3 day): 5.6 g/dL; gamma-GTP (72 h, time 3 day): 1.6 IU/L; TERMINAL_BW ([…], time 7 day): 255.1 g; TERMINAL_BW ([…], time 14 day): 321.9 g; TERMINAL_BW ([…], time 28 day): 376.7 g; APTT ([…], time 7 day): 22.4 s; Bas ([…], time 7 day): 0%; Eos ([…], time 7 day): 0.8%; Fbg ([…], time 7 day): 305.8 mg/dL; Hb ([…], time 7 day): 13.5 g/dL; Ht ([…], time 7 day): 39.7%; Lym ([…], time 7 day): 79.2%; MCH ([…], time 7 day): 20.9 pg; MCHC ([…], time 7 day): 34.1%; MCV ([…], time 7 day): 61.4 fL; Mono ([…], time 7 day): 2.4%; Neu ([…], time 7 day): 16.4%; PT ([…], time 7 day): 15.8 s; Plat ([…], time 7 day): 125.6 x10_4/uL; RBC ([…], time 7 day): 647 x10_4/ul; Ret ([…], time 7 day): 6.1%; WBC ([…], time 7 day): 109.7 x10_2/uL; APTT ([…], time 14 day): 24.5 s; Bas ([…], time 14 day): 0%; Eos ([…], time 14 day): 1%; Fbg ([…], time 14 day): 297 mg/dL; Hb ([…], time 14 day): 14.3 g/dL; Ht ([…], time 14 day): 41.1%; Lym ([…], time 14 day): 80.2%; MCH ([…], time 14 day): 20.8 pg; MCHC ([…], time 14 day): 34.8%; MCV ([…], time 14 day): 59.9 fL; Mono ([…], time 14 day): 2.4%; Neu ([…], time 14 day): 15.4%; PT ([…], time 14 day): 15.6 s; Plat ([…], time 14 day): 116.6 x10_4/uL; RBC ([…], time 14 day): 686.2 x10_4/ul; Ret ([…], time 14 day): 5.6%; WBC ([…], time 14 day): 147.7 x10_2/uL; APTT ([…], time 28 day): 25.2 s; Bas ([…], time 28 day): 0%; Eos ([…], time 28 day): 1.2%; Fbg ([…], time 28 day): 325.8 mg/dL; Hb ([…], time 28 day): 15.2 g/dL; Ht ([…], time 28 day): 43.1%; Lym ([…], time 28 day): 80.6%; MCH ([…], time 28 day): 19.6 pg; MCHC ([…], time 28 day): 35.2%; MCV ([…], time 28 day): 55.6 fL; Mono ([…], time 28 day): 2.6%; Neu ([…], time 28 day): 14.6%; PT ([…], time 28 day): 15.9 s; Plat ([…], time 28 day): 94 x10_4/uL; RBC ([…], time 28 day): 775.4 x10_4/ul; Ret ([…], time 28 day): 2.8%; WBC ([…], time 28 day): 122.4 x10_2/uL; KIDNEY_L ([…], time 7 day): 1.1 g; KIDNEY_R ([…], time 7 day): 1.1 g; KIDNEY_TOTAL ([…], time 7 day): 2.2 g; KIDNEY_L ([…], time 14 day): 1.2 g; KIDNEY_R ([…], time 14 day): 1.3 g; KIDNEY_TOTAL ([…], time 14 day): 2.5 g; KIDNEY_L ([…], time 28 day): 1.3 g; KIDNEY_R ([…], time 28 day): 1.4 g; KIDNEY_TOTAL ([…], time 28 day): 2.7 g; LIVER ([…], time 7 day): 11.2 g; LIVER ([…], time 14 day): 14.1 g; LIVER ([…], time 28 day): 15.3 g; A/G ([…], time 7 day): 1.1; ALP ([…], time 7 day): 1665.2 IU/L; ALT ([…], time 7 day): 37.2 IU/L; AST ([…], time 7 day): 66.8 IU/L; BUN ([…], time 7 day): 16.8 mg/dL; CRE ([…], time 7 day): 0.1 mg/dL; Ca ([…], time 7 day): 10.6 mg/dL; Cl ([…], time 7 day): 107.4 meq/L; DBIL ([…], time 7 day): 0 mg/dL; GLC ([…], time 7 day): 189.8 mg/dL; IP ([…], time 7 day): 7.3 mg/dL; K ([…], time 7 day): 4.2 meq/L; LDH ([…], time 7 day): 146.2 IU/L; Na ([…], time 7 day): 141.8 meq/L; PL ([…], time 7 day): 139.4 mg/dL; RALB ([…], time 7 day): 3 g/dL; TBIL ([…], time 7 day): 0.002 mg/dL; TC ([…], time 7 day): 70.6 mg/dL; TG ([…], time 7 day): 103.2 mg/dL; TP ([…], time 7 day): 5.6 g/dL; gamma-GTP ([…], time 7 day): 2.2 IU/L; A/G ([…], time 14 day): 1.2; ALP ([…], time 14 day): 1412.8 IU/L; ALT ([…], time 14 day): 37.4 IU/L; AST ([…], time 14 day): 66.6 IU/L; BUN ([…], time 14 day): 18.2 mg/dL; CRE ([…], time 14 day): 0.2 mg/dL; Ca ([…], time 14 day): 10.4 mg/dL; Cl ([…], time 14 day): 107.4 meq/L; DBIL ([…], time 14 day): 0 mg/dL; GLC ([…], time 14 day): 199 mg/dL; IP ([…], time 14 day): 6.4 mg/dL; K ([…], time 14 day): 4.3 meq/L; LDH ([…], time 14 day): 135.6 IU/L; Na ([…], time 14 day): 141.6 meq/L; PL ([…], time 14 day): 134 mg/dL; RALB ([…], time 14 day): 3.1 g/dL; TBIL ([…], time 14 day): 0.006 mg/dL; TC ([…], time 14 day): 65.4 mg/dL; TG ([…], time 14 day): 121 mg/dL; TP ([…], time 14 day): 5.7 g/dL; gamma-GTP ([…], time 14 day): 2 IU/L; A/G ([…], time 28 day): 1.2; ALP ([…], time 28 day): 1019.8 IU/L; ALT ([…], time 28 day): 34.6 IU/L; AST ([…], time 28 day): 58.2 IU/L; BUN ([…], time 28 day): 19.2 mg/dL; CRE ([…], time 28 day): 0.2 mg/dL; Ca ([…], time 28 day): 10.8 mg/dL; Cl ([…], time 28 day): 106.8 meq/L; DBIL ([…], time 28 day): 0 mg/dL; GLC ([…], time 28 day): 191 mg/dL; IP ([…], time 28 day): 6.2 mg/dL; K ([…], time 28 day): 4 meq/L; LDH ([…], time 28 day): 115.8 IU/L; Na ([…], time 28 day): 142.8 meq/L; PL ([…], time 28 day): 142.4 mg/dL; RALB ([…], time 28 day): 3.2 g/dL; TBIL ([…], time 28 day): 0.008 mg/dL; TC ([…], time 28 day): 77.4 mg/dL; TG ([…], time 28 day): 136.4 mg/dL; TP ([…], time 28 day): 5.9 g/dL; gamma-GTP ([…], time 28 day): 1.6 IU/L
